# Changes are numbered by the printed parent chain. Where a SMILES comes first, the peptide text is derived from it. Where no end group is shown, it is not given here.
# Tests used:
# [1] = cis/trans isomer population in aqueous solution by NMR; type: physicochemical; settings: cis amide bond at residue 6-Pro7, aqueous solution
# Description: Peptide synthesis and sample preparation. The synthesis of the following peptides: AII (D^1-R^2—V^3—Y^4—I^5—H^6—P^7—F^8); [Y]^6-AII (D^1-R^2—V^3—Y^4—I^5—Y^6—P^7—F^8); [4-OPO3H2—F]^6-AII, (D^1-R^2—V^3—Y^4—I^5-(4-OPO3H2—F)^6—P^7—F^8), [F]^6-AII, (D^1-R^2—V^3—Y^4—I^5—F^6—P^7—F^8) and [4-NO2—F]^6-AII, (D^1-R^2—V^3—Y^4—I^5-(4-NO2—F)^6—P^7—F^8) was achieved using Fmoc/tBu methodology. 2-Chlorotrityl chloride resin and N^α-Fmoc (9-fluorenylmethyloxycarbonyl) amino acids were used for the synthesis. Peptide purity was assessed by analytical HPLC (Nucleosil-120 C18, reversed phase, 250×4.0 mm), mass spectrometry (FABMS, ESIMS) and amino acid analysis. The samples were prepared for NMR spectroscopy by dissolving the peptide in 0.01 M KPi buffer (pH=4), containing 0.02 M KCl. 2,2-dimethyl-2-sila-pentane sulfonate (DSS) was added to a concentration of 1 mM as an internal chemical shift reference. Peptide concentration was commonly 4 mM in 90% ^1H2O/10% ^2H2O. Trace amounts of NaN3 were added as a preservative.
# Inter-proton distances for AII were derived by measuring cross-peak intensities in the NOESY spectra. Intensities were calibrated to give a set of distance constrains using the NMRVIEW software package. NOEs cross peaks were separated into three distance categories according to their intensity. […]
# [2] = test system: AT2R wild type; assay: Radioligand binding assays (saturation and competition), HEK293T membranes
# Experimental: (§1) Cell culture and transient transfection. HEK293T cells were maintained at 37° C. in Dulbecco's modified Eagle's medium (DMEM) supplemented with 10% (v/v) fetal bovine serum (FBS), 2 mM glutamine, 100 U/ml penicillin, and 100 μg/ml streptomycin. Cells were seeded into 10 cm dish and 24 hours later were transfected with either AT1aR (pcDNA3.1) or AT2R (pcDNAI/Amp) using GeneJuice transfection reagent according to the manufacturer's instructions. Cells were harvested 48 hours after transfection. A pellet of transfected HEK293T cells (2×10^6 cells) was resuspended in ice-cold 0.5 ml binding buffer (50 mM Tris-HCl pH 7.4, 100 mM NaCl, 10 mM MgCl2, 1 mM EDTA, 0.2% BSA and 0.025% Bacitracin) containing protease inhibitors (Complete™, Roche). The cells were transferred to a 1.5 ml microcentrifuge tube and subjected to two cycles of freeze-thawing. The lysed cells were sheared by passaging seven times through a 26-gauge needle and the crude membranes were pelleted by ultracentrifugation (60 min, 120,000×g, 4° C.). The crude membranes were then resuspended in a final volume of 0.2 ml ice-cold binding buffer containing protease inhibitors corresponding to a protein concentration 3.3 μg/μl as determined by the amido black protein assay^45.
# (§2) Radioligand binding assays. […] Non-specific binding was determined in presence of 6 μM cold AII. […] Samples were incubated for 2 hours at 4° C. Receptor-bound and free radioligand were separated by filtration through Whatman GF/B filters, pre-soaked with 0.3% polyethylamine. The filters were washed with 5 ml of ice-cold binding buffer and transferred to scintillation tubes. Radioactivity was counted on a Beckman LS6000 liquid scintillation counter and data were analyzed by non-linear regression using Prism software (GraphPad).
# [3] = molecular target: T1, AT2R-F272A (Homo sapiens, UniProt P50052, F272A); assay: Radioligand binding assays, AT2R mutant; settings: competition vs 2 nM [125I]-AII, 2 hours on ice, Cheng and Prusoff
# T1 construct: expressed in transfected cells; host or cells: HEK293T, transient, crude membranes
# T1 sequence (P50052 1-363 F272A): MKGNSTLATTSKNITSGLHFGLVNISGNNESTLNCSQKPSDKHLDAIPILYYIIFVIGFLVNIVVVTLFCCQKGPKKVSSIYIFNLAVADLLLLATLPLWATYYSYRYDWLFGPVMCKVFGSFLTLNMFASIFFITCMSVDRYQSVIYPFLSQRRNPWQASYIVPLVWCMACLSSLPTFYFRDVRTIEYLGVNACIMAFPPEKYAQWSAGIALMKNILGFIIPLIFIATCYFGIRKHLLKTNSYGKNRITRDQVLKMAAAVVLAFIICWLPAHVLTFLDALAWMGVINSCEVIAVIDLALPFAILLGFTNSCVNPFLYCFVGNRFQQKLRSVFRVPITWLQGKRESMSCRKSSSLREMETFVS
# Experimental: (§3) Mutagenesis. AT2R mutants were generated as described elsewhere^44.
# as §1, §2
# [4] = molecular target: T2, AT2R-Y189N (Homo sapiens, UniProt P50052, Y189N); assay: Radioligand binding assays, AT2R mutant; settings: competition vs 2 nM [125I]-AII, 2 hours on ice, Cheng and Prusoff
# T2 construct: expressed in transfected cells; host or cells: HEK293T, transient, crude membranes
# T2 sequence (P50052 1-363 Y189N): T1 sequence (P50052 1-363 F272A) with Y189N, A272F
# Experimental: as §3, §1, §2
# [5] = molecular target: T3, AT2R-F272H (Homo sapiens, UniProt P50052, F272H); assay: Radioligand binding assays, AT2R mutant; settings: competition vs 2 nM [125I]-AII, 2 hours on ice, Cheng and Prusoff
# T3 construct: expressed in transfected cells; host or cells: HEK293T, transient, crude membranes
# T3 sequence (P50052 1-363 F272H): T1 sequence (P50052 1-363 F272A) with A272H
# Experimental: as §3, §1, §2
# [6] = molecular target: T4, AT2R-Y189A (Homo sapiens, UniProt P50052, Y189A); assay: Radioligand binding assays, AT2R mutant; settings: competition vs 2 nM [125I]-AII, 2 hours on ice, Cheng and Prusoff
# T4 construct: expressed in transfected cells; host or cells: HEK293T, transient, crude membranes
# T4 sequence (P50052 1-363 Y189A): T1 sequence (P50052 1-363 F272A) with Y189A, A272F
# Experimental: as §3, §1, §2
# [7] = molecular target: T5, AT1aR (Rattus norvegicus, UniProt P25095); assay: Radioligand binding assays (saturation and competition), HEK293T membranes; settings: for Ki: competition vs 2 nM [125I]-AII, 2 hours on ice, Cheng and Prusoff, receptor printed AT1R
# T5 construct: expressed in transfected cells; host or cells: HEK293T, transient, crude membranes
# T5 sequence (P25095 1-359): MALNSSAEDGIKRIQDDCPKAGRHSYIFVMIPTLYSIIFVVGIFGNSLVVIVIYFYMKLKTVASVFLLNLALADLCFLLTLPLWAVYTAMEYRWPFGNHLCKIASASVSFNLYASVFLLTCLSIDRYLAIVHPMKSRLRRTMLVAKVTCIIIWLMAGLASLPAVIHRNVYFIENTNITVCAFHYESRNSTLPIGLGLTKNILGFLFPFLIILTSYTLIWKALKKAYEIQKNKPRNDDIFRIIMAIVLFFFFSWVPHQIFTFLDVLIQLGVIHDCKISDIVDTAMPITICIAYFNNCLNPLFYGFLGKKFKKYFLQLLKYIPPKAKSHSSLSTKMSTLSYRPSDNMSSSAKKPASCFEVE
# Experimental: as §1, §2
# [8] = molecular target: T6, AT2R (Homo sapiens, UniProt P50052); settings: relative to AII; cited from earlier work
# T6 sequence (P50052 1-363): T1 sequence (P50052 1-363 F272A) with A272F
# [9] = test system: AT1aR; settings: relative to AII; cited from earlier work
lower affinity for AT2R in comparison to [Y]^6-AII ([2]; unpublished data),Molecule,%cis [1] [%],Ki [3] [nM],Ki [4] [nM],Ki [5] [nM],Ki [6] [nM],Ki [7] [nM],further results
more than 50 times,"D^1-R^2—V^3—Y^4—I^5—F^6—P^7—F^8 (DRVYIFPF; Angiotensin-2; UniProt P01019 25-32, looked up, variant H6F) [[F]^6-AII, AII analogue with phenylalanine at position 6]",~20,–,–,–,–,–,affinity for AT1aR compared with AT2R (in words) ([2]; unpublished data): same affinity for both AT1aR and AT2R
–,"CC[C@H](C)[C@H](NC(=O)[C@H](Cc1ccc(O)cc1)NC(=O)[C@@H](NC(=O)[C@H](CCCNC(=N)N)NC(=O)[C@@H](N)CC(=O)O)C(C)C)C(=O)N[C@@H](Cc1c[nH]cn1)C(=O)N1CCC[C@H]1C(=O)N[C@@H](Cc1ccccc1)C(=O)O [[^125I]-AII, reference compound]",–,–,–,–,–,–,"Kd ([2]; saturation assay, 2 hours on ice): 2.3 ± 0.3 nM"
–,"CC[C@H](C)[C@H](NC(=O)[C@H](Cc1ccc(O)cc1)NC(=O)[C@@H](NC(=O)[C@H](CCCNC(=N)N)NC(=O)[C@@H](N)CC(=O)O)C(C)C)C(=O)N[C@@H](Cc1ccc(OP(=O)(O)O)cc1)C(=O)N1CCC[C@H]1C(=O)N[C@@H](Cc1ccccc1)C(=O)O [[4-OPO3H2—F]^6-AII, D^1-R^2—V^3—Y^4—I^5-(4-OPO3H2—F)^6—P^7—F^8] (HELM PEPTIDE1{D.R.V.Y.I.[O=C([C@H](Cc1ccc(OP(=O)(O)O)cc1)N[*:1])[*:2]].P.F}$$$$V2.0)",–,250,200,21,51,> 2500,–
–,"Pro7Gly mutation in AII: literature AII analogue with Pro7 replaced by Gly (ref 16) (DRVYIHGF; Angiotensin-2; UniProt P01019 25-32, looked up, variant P7G)",–,–,–,–,–,–,affinity for the AT2R (in words) [8]: almost retained its affinity; lower affinity for AT1aR [9]: 150 times
300 times,D^1-R^2—V^3—Y^4—I^5-(4-NO2—F)^6—P^7—F^8 [[4-NO2—F]^6-AII],~5,–,–,–,–,–,binding / affinity for AT1aR (in words) [7]: high affinity (nM)
–,DRVYIYPF [[Y]^6-AII],–,16,10,16,12,> 2500,–

# — US20140303082A1, “SELECTIVE GPCR LIGANDS” (Medical Research Council, priority 2011, published 2014)
